From ChEMBL document CHEMBL3885861, “Open TG-GATES”

Species on record: Rattus norvegicus
Assay: Open TG-GATES - Regimen: Single
Assay type: toxicity, organism-based, Sprague-Dawley
Set-up: regimen Single, gender Male, age 6 weeks
Conditions: in vivo, po, 0 mg/kg, route gavage, dose level Control; for APTT / Bas / Eos / Fbg / Hb / Ht / Lym / MCH / MCHC / Mono / Neu / Plat / RBC / Ret / WBC: tissue Blood; for KIDNEY_L / KIDNEY_R / KIDNEY_TOTAL: tissue Kidney; for LIVER: tissue Liver; for ALP / ALT / AST / BUN / CRE / Ca / Cl / DBIL / GLC / IP / K / LDH / Na / PL / RALB / TBIL / TC / TG / TP / gamma-GTP: tissue Plasma

O=C(CCCN1CCC(O)(c2ccc(Cl)cc2)CC1)c1ccc(F)cc1 [HALOPERIDOL]
TERMINAL_BW (3 h): 208.8 g
APTT (3 h): 16.5 s
Bas (3 h): 0%
Eos (3 h): 0%
Fbg (3 h): 202 mg/dL
Hb (3 h): 13.4 g/dL
Ht (3 h): 40.2%
Lym (3 h): 77.8%
MCH (3 h): 21.8 pg
MCHC (3 h): 33.5%
Mono (3 h): 9.2%
Neu (3 h): 13%
Plat (3 h): 94.5 x10_4/uL
RBC (3 h): 616.8 x10_4/ul
Ret (3 h): 8.7%
WBC (3 h): 114.5 x10_2/uL
KIDNEY_L (3 h): 1 g
KIDNEY_R (3 h): 1 g
KIDNEY_TOTAL (3 h): 2 g
LIVER (3 h): 10.1 g
ALP (3 h): 1053.2 IU/L
ALT (3 h): 34.4 IU/L
AST (3 h): 64.4 IU/L
BUN (3 h): 16 mg/dL
CRE (3 h): 0.5 mg/dL
Ca (3 h): 11.4 mg/dL
Cl (3 h): 105 meq/L
DBIL (3 h): 0.006 mg/dL
GLC (3 h): 185.6 mg/dL
IP (3 h): 9.4 mg/dL
K (3 h): 5.2 meq/L
LDH (3 h): 85 IU/L
Na (3 h): 139 meq/L
PL (3 h): 151.4 mg/dL
RALB (3 h): 3.7 g/dL
TBIL (3 h): 0.4 mg/dL
TC (3 h): 82.8 mg/dL
TG (3 h): 63.2 mg/dL
TP (3 h): 5.6 g/dL
gamma-GTP (3 h): 1.4 IU/L
TERMINAL_BW (6 h): 200.9 g
APTT (6 h): 16.6 s
Bas (6 h): 0%
Eos (6 h): 0.2%
Fbg (6 h): 206.4 mg/dL
Hb (6 h): 13.6 g/dL
Ht (6 h): 40.6%
Lym (6 h): 72%
MCH (6 h): 21.7 pg
MCHC (6 h): 33.4%
Mono (6 h): 5.8%
Neu (6 h): 22%
Plat (6 h): 102.2 x10_4/uL
RBC (6 h): 625.8 x10_4/ul
Ret (6 h): 8.8%
WBC (6 h): 95.9 x10_2/uL
KIDNEY_L (6 h): 0.9 g
KIDNEY_R (6 h): 1 g
KIDNEY_TOTAL (6 h): 1.9 g
LIVER (6 h): 9.3 g
ALP (6 h): 862.2 IU/L
ALT (6 h): 34.8 IU/L
AST (6 h): 62 IU/L
BUN (6 h): 11.4 mg/dL
CRE (6 h): 0.5 mg/dL
Ca (6 h): 10.7 mg/dL
Cl (6 h): 104.8 meq/L
DBIL (6 h): 0.036 mg/dL
GLC (6 h): 175.2 mg/dL
IP (6 h): 10.1 mg/dL
K (6 h): 5.1 meq/L
LDH (6 h): 92.4 IU/L
Na (6 h): 137.6 meq/L
PL (6 h): 142.8 mg/dL
RALB (6 h): 3.7 g/dL
TBIL (6 h): 0.3 mg/dL
TC (6 h): 80.2 mg/dL
TG (6 h): 47.8 mg/dL
TP (6 h): 5.6 g/dL
gamma-GTP (6 h): 1.4 IU/L
TERMINAL_BW (9 h): 199.3 g
APTT (9 h): 16.7 s
Bas (9 h): 0%
Eos (9 h): 0.8%
Fbg (9 h): 205.4 mg/dL
Hb (9 h): 13.7 g/dL
Ht (9 h): 41%
Lym (9 h): 68.6%
MCH (9 h): 22.1 pg
MCHC (9 h): 33.3%
Mono (9 h): 6.6%
Neu (9 h): 24%
Plat (9 h): 103.6 x10_4/uL
RBC (9 h): 619.2 x10_4/ul
Ret (9 h): 8.3%
WBC (9 h): 96.1 x10_2/uL
KIDNEY_L (9 h): 0.9 g
KIDNEY_R (9 h): 0.9 g
KIDNEY_TOTAL (9 h): 1.8 g
LIVER (9 h): 8.6 g
ALP (9 h): 860.2 IU/L
ALT (9 h): 32.6 IU/L
AST (9 h): 59.8 IU/L
BUN (9 h): 12.2 mg/dL
CRE (9 h): 0.5 mg/dL
Ca (9 h): 10.5 mg/dL
Cl (9 h): 106.2 meq/L
DBIL (9 h): 0.024 mg/dL
GLC (9 h): 188.4 mg/dL
IP (9 h): 10.8 mg/dL
K (9 h): 5.1 meq/L
LDH (9 h): 83.8 IU/L
Na (9 h): 138 meq/L
PL (9 h): 134.4 mg/dL
RALB (9 h): 3.8 g/dL
TBIL (9 h): 0.4 mg/dL
TC (9 h): 76.8 mg/dL
TG (9 h): 35.4 mg/dL
TP (9 h): 5.5 g/dL
gamma-GTP (9 h): 1.8 IU/L
TERMINAL_BW (24 h): 214.4 g
APTT (24 h): 16.2 s
Bas (24 h): 0%
Eos (24 h): 0.8%
Fbg (24 h): 205.8 mg/dL
Hb (24 h): 13.3 g/dL
Ht (24 h): 39.3%
Lym (24 h): 75.4%
MCH (24 h): 22 pg
MCHC (24 h): 33.9%
Mono (24 h): 6.8%
Neu (24 h): 17%
Plat (24 h): 107.6 x10_4/uL
RBC (24 h): 605.8 x10_4/ul
Ret (24 h): 8.9%
WBC (24 h): 82.8 x10_2/uL
KIDNEY_L (24 h): 0.9 g
KIDNEY_R (24 h): 1 g
KIDNEY_TOTAL (24 h): 1.9 g
LIVER (24 h): 10.6 g
ALP (24 h): 1093.2 IU/L
ALT (24 h): 43 IU/L
AST (24 h): 64.8 IU/L
BUN (24 h): 19.2 mg/dL
CRE (24 h): 0.6 mg/dL
Ca (24 h): 11 mg/dL
Cl (24 h): 104.6 meq/L
DBIL (24 h): 0.028 mg/dL
GLC (24 h): 185.4 mg/dL
IP (24 h): 8.2 mg/dL
K (24 h): 4.9 meq/L
LDH (24 h): 82.6 IU/L
Na (24 h): 138.8 meq/L
PL (24 h): 165.4 mg/dL
RALB (24 h): 3.7 g/dL
TBIL (24 h): 0.4 mg/dL
TC (24 h): 87.2 mg/dL
TG (24 h): 94.8 mg/dL
TP (24 h): 5.7 g/dL
